Laboratory results from patent publication US20230279025A1, “KRAS G12D INHIBITORS” (Mirati Therapeutics, Inc., priority 2020, published 2023).

What was measured:
[1] = target: T1, KRas G12D (Homo sapiens (Human), UniProt P01116, G12D); assay: KRas G12D Surface Plasmon Resonance (SPR) Binding Assay; conditions: Biacore T200, immobilized biotinylated KRAS protein, 1:1 binding model
Target sequence in this assay (P01116-2 other isoform, or with tags, fused parts or gaps G12D): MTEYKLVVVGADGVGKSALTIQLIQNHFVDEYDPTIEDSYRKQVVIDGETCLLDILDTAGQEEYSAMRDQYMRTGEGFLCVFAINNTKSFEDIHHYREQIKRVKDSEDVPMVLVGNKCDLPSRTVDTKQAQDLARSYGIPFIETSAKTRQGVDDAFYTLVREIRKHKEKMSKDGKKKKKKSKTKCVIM

[2] = target: T1, KRas G12D; assay: KRas G12D Binding Assay (TR-FRET displacement of Cy5 labelled tracer); conditions: GDP-loaded KRAS G12D (amino acids 1:169), 60 minute incubation at 22° C.
Method: After a 60 minute incubation at 22° C., the reaction was measured using a PerkinElmer EnVision multimode plate reader via TR-FRET dual wavelength detection, and the percent of control (POC) calculated using a ratiometric emission factor. […] The POC values were fit to a 4-parameter logistic curve and the IC50 value was determined as the concentration where the curve crosses 50 POC.
ND stands for “not determined.”
Target sequence in this assay (P01116 other isoform, or with tags, fused parts or gaps G12D): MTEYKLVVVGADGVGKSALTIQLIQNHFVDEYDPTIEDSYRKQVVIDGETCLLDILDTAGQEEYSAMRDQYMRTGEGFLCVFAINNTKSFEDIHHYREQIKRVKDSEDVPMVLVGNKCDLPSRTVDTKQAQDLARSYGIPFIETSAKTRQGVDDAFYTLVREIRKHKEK

Row | Compound | Kd [1] [µM] | IC50 [2] [µM]
1 | O=S1(=O)CCC(Oc2nc(N3C[C@H]4CC[C@@H](C3)N4)c3cnc(-c4cc(O)cc5ccccc45)c(F)c3n2)CC1 [Example 71, 4-((4-((1R,5S)-3,8-diazabicyclo[3.2.1]octan-3-yl)-8-fluoro-7-(3-hydroxynaphthalen-1-yl)pyrido[4,3-d]pyrimidin-2-yl)oxy)tetrahydro-2H-thiopyran 1,1-dioxide] | 0.138 | 0.126
2 | Oc1cc(-c2ncc3c(N4C[C@H]5CC[C@@H](C4)N5)nc(OC4CCOCC4)nc3c2F)c2ccccc2c1 [Example 72, 4-(4-((1R,5S)-3,8-diazabicyclo[3.2.1]octan-3-yl)-8-fluoro-2-((tetrahydro-2H-pyran-4-yl)oxy)pyrido[4,3-d]pyrimidin-7-yl)naphthalen-2-ol] | 0.507 | 0.513
3 | Oc1cc(-c2ncc3c(N4C[C@H]5CC[C@@H](C4)N5)nc(OCC4CCCC4)nc3c2F)c2ccccc2c1 [Example 73, 4-(4-((1R,5S)-3,8-diazabicyclo[3.2.1]octan-3-yl)-2-(cyclopentylmethoxy)-8-fluoropyrido[4,3-d]pyrimidin-7-yl)naphthalen-2-ol] | 667 | 0.573
4 | Oc1cc(-c2ncc3c(N4C[C@H]5CC[C@@H](C4)N5)nc(N4CC5(CCOCC5)C4)nc3c2F)c2ccccc2c1 [Example 74, 4-(4-((1R,5S)-3,8-diazabicyclo[3.2.1]octan-3-yl)-8-fluoro-2-(7-oxa-2-azaspiro[3.5]nonan-2-yl)pyrido[4,3-d]pyrimidin-7-yl)naphthalen-2-ol] | 0.141 | 0.188
5 | OCCCOc1nc(N2C[C@H]3CC[C@@H](C2)N3)c2cnc(-c3cc(O)cc4ccccc34)c(F)c2n1 [Example 75, 4-(4-((1R,5S)-3,8-diazabicyclo[3.2.1]octan-3-yl)-8-fluoro-2-(3-hydroxypropoxy)pyrido[4,3-d]pyrimidin-7-yl)naphthalen-2-ol] | 0.304 | 0.24
6 | Oc1cc(-c2ncc3c(N4C[C@H]5CC[C@@H](C4)N5)nc(N4CC5(CCOC5)C4)nc3c2F)c2ccccc2c1 [Example 76, 4-(4-((1R,5S)-3,8-diazabicyclo[3.2.1]octan-3-yl)-8-fluoro-2-(6-oxa-2-azaspiro[3.4]octan-2-yl)pyrido[4,3-d]pyrimidin-7-yl)naphthalen-2-ol] | 0.197 | 0.131
7 | OC[C@@H]1CCCN1c1nc(N2C[C@H]3CC[C@@H](C2)N3)c2cnc(-c3cc(O)cc4ccccc34)c(F)c2n1 [Example 77, 4-(4-((1R,5S)-3,8-diazabicyclo[3.2.1]octan-3-yl)-8-fluoro-2-((S)-2-(hydroxymethyl)pyrrolidin-1-yl)pyrido[4,3-d]pyrimidin-7-yl)naphthalen-2-ol] | 3.07 | 3.14
8 | CC(=O)N1CCC(Oc2nc(N3C[C@H]4CC[C@@H](C3)N4)c3cnc(-c4cc(O)cc5ccccc45)c(F)c3n2)CC1 [Example 78, 1-(4-((4-((1R,5S)-3,8-diazabicyclo[3.2.1]octan-3-yl)-8-fluoro-7-(3-hydroxynaphthalen-1-yl)pyrido[4,3-d]pyrimidin-2-yl)oxy)piperidin-1-yl)ethan-1-one] | 0.367 | 0.358
9 | Oc1cc(-c2ncc3c(N4C[C@H]5CC[C@@H](C4)N5)nc(OC4CCSCC4)nc3c2F)c2ccccc2c1 [Example 79, 4-(4-((1R,5S)-3,8-diazabicyclo[3.2.1]octan-3-yl)-8-fluoro-2-((tetrahydro-2H-thiopyran-4-yl)oxy)pyrido[4,3-d]pyrimidin-7-yl)naphthalen-2-ol] | > 1000 | 0.337
10 | Oc1cc(-c2ncc3c(N4C[C@H]5CC[C@@H](C4)N5)nc(OC4CCC(F)(F)CC4)nc3c2F)c2ccccc2c1 [Example 80, 4-(4-((1R,5S)-3,8-diazabicyclo[3.2.1]octan-3-yl)-2-((4,4-difluorocyclohexyl)oxy)-8-fluoropyrido[4,3-d]pyrimidin-7-yl)naphthalen-2-ol] | > 500 | 0.647
11 | Oc1cc(-c2ncc3c(N4C[C@H]5CC[C@@H](C4)N5)nc(OCCC(F)(F)F)nc3c2F)c2ccccc2c1 [Example 81, 4-(4-((1R,5S)-3,8-diazabicyclo[3.2.1]octan-3-yl)-8-fluoro-2-(3,3,3-trifluoropropoxy)pyrido[4,3-d]pyrimidin-7-yl)naphthalen-2-ol] | 0.321 | 0.153
12 | [O-][S+]1CCC(Oc2nc(N3C[C@H]4CC[C@@H](C3)N4)c3cnc(-c4cc(O)cc5ccccc45)c(F)c3n2)CC1 (stereo partly drawn) [Example 82, 4-((4-((1R,5S)-3,8-diazabicyclo[3.2.1]octan-3-yl)-8-fluoro-7-(3-hydroxynaphthalen-1-yl)pyrido[4,3-d]pyrimidin-2-yl)oxy)tetrahydro-2H-thiopyran 1-oxide] | 0.215 | 0.227
13 | Cc1nccn1CCOc1nc(N2CC3CCC(C2)N3)c2cnc(-c3cc(O)cc4ccccc34)c(F)c2n1 [Example 84, 4-(4-((1R,5S)-3,8-diazabicyclo[3.2.1]octan-3-yl)-8-fluoro-2-(2-(2-methyl-1H-imidazol-1-yl)ethoxy)pyrido[4,3-d]pyrimidin-7-yl)naphthalen-2-ol] | 0.0144 | 0.0317
14 | CC(C)Cn1ccnc1CCOc1nc(N2C[C@H]3CC[C@@H](C2)N3)c2cnc(-c3cc(O)cc4ccccc34)c(F)c2n1 [Example 85, 4-(4-((1R,5S)-3,8-diazabicyclo[3.2.1]octan-3-yl)-8-fluoro-2-(2-(1-isobutyl-1H-imidazol-2-yl)ethoxy)pyrido[4,3-d]pyrimidin-7-yl)naphthalen-2-ol] | 0.148 | 0.454
15 | COc1ccc(CCOc2nc(N3C[C@H]4CC[C@@H](C3)N4)c3cnc(-c4cccc5cccc(Cl)c45)c(F)c3n2)cn1 [Example 86, 4-((1R,5S)-3,8-diazabicyclo[3.2.1]octan-3-yl)-7-(8-chloronaphthalen-1-yl)-8-fluoro-2-(2-(6-methoxypyridin-3-yl)ethoxy)pyrido[4,3-d]pyrimidine] | 528 | 7.92
16 | Cc1cccc(CCOc2nc(N3C[C@H]4CC[C@@H](C3)N4)c3cnc(-c4cc(O)cc5ccccc45)c(F)c3n2)n1 [Example 87, 4-(4-((1R,5S)-3,8-diazabicyclo[3.2.1]octan-3-yl)-8-fluoro-2-(2-(6-methylpyridin-2-yl)ethoxy)pyrido[4,3-d]pyrimidin-7-yl)naphthalen-2-ol] | 0.196 | 0.536
17 | Cc1ccc2[nH]ncc2c1-c1ncc2c(N3C[C@H]4CC[C@@H](C3)N4)nc(OCCc3nccn3C)nc2c1F [Example 88, 4-((1R,5S)-3,8-diazabicyclo[3.2.1]octan-3-yl)-8-fluoro-2-(2-(1-methyl-1H-imidazol-2-yl)ethoxy)-7-(5-methyl-1H-indazol-4-yl)pyrido[4,3-d]pyrimidine] | 15.6 | 7.02
18 | Oc1cc(-c2ncc3c(N4C[C@H]5CC[C@@H](C4)N5)nc(OCc4ccccn4)nc3c2F)c2ccccc2c1 [Example 89, 4-(4-((1R,5S)-3,8-diazabicyclo[3.2.1]octan-3-yl)-8-fluoro-2-(pyridin-2-ylmethoxy)pyrido[4,3-d]pyrimidin-7-yl)naphthalen-2-ol] | 4.31 | 0.679
19 | Fc1ccc2cccc(-c3ncc4c(N5C[C@H]6CC[C@@H](C5)N6)nc(OCCc5cccnc5)nc4c3F)c2c1 [Example 90, 4-((1R,5S)-3,8-diazabicyclo[3.2.1]octan-3-yl)-8-fluoro-7-(7-fluoronaphthalen-1-yl)-2-(2-(pyridin-3-yl)ethoxy)pyrido[4,3-d]pyrimidine] | 7.81 | 4.49
